Patent US20050197350A1, “Novel quinoline, tetrahydroquinazoline, and pyrimidine derivatives and methods of treatment related to the use thereof” (TAISHO PHARMACEUTICAL CO., LTD., priority 2003, published 2005)

These compounds were tested on MCH receptors (assay: MCH receptor activity class (method not given)). Conditions: class by percent of control at 10^-7 M or IC50.

Row | Compound | class
1 | CN(C)c1cc(N[C@H]2CC[C@@H](NC(=O)[C@H](CCCCNC(=O)c3ccccc3)NC(=O)c3ccccc3)CC2)nc2ccccc12 (relative stereo) [compound 704] | 3 (Class 3 The value of percent of control at 10^−7 M was more than 60% or the value of IC50 was more than 200 nM.)
2 | CC(C(=O)N[C@H]1CC[C@@H](Nc2cc(N(C)C)c3ccccc3n2)CC1)c1ccc(-c2ccccc2)c(F)c1 (relative stereo) [compound 708] | 3 (Class 3 The value of percent of control at 10^−7 M was more than 60% or the value of IC50 was more than 200 nM.)
3 | CC(C(=O)N[C@H]1CC[C@@H](Nc2cc(N(C)C)c3ccccc3n2)CC1)c1ccc(N2Cc3ccccc3C2=O)cc1 (relative stereo) [compound 710] | 3 (Class 3 The value of percent of control at 10^−7 M was more than 60% or the value of IC50 was more than 200 nM.)
4 | COc1ccc2c(c1)C(CC(=O)N[C@H]1CC[C@@H](Nc3cc(N(C)C)c4ccccc4n3)CC1)CC2=O (relative stereo) [compound 713] | 3 (Class 3 The value of percent of control at 10^−7 M was more than 60% or the value of IC50 was more than 200 nM.)
5 | CN(C)c1cc(N[C@H]2CC[C@@H](NC(=O)C(CC(=O)c3ccccc3)c3c[nH]c4ccccc34)CC2)nc2ccccc12 (relative stereo) [compound 716, N-(cis-4-{[4-(dimethylamino)quinolin-2-yl]amino}cyclohexyl)-2-(1H-indol-3-yl)-4-oxo-4-phenylbutanamide] | 2 (Class 2: The value of percent of control at 10^−7 M was from 40% to 60% or the value of IC′50 was from 50 nM to 200 nM.)
6 | CN(C)c1cc(N[C@H]2CC[C@@H](NC(=O)C(CC(=O)c3ccc(Br)cc3)c3c[nH]c4ccccc34)CC2)nc2ccccc12 (relative stereo) [compound 717] | 3 (Class 3 The value of percent of control at 10^−7 M was more than 60% or the value of IC50 was more than 200 nM.)
7 | CCc1cccc2c(C(CC(=O)c3ccc(C(C)(C)C)cc3)C(=O)N[C@H]3CC[C@@H](Nc4cc(N(C)C)c5ccccc5n4)CC3)c[nH]c12 (relative stereo) [compound 720] | 3 (Class 3 The value of percent of control at 10^−7 M was more than 60% or the value of IC50 was more than 200 nM.)
8 | CN(C)c1cc(N[C@H]2CC[C@@H](NC(=O)C(CC(=O)c3ccc(C(C)(C)C)cc3)c3cn(C)c4ccccc34)CC2)nc2ccccc12 (relative stereo) [compound 721] | 3 (Class 3 The value of percent of control at 10^−7 M was more than 60% or the value of IC50 was more than 200 nM.)
9 | Cc1ccc(C(=O)CC(C(=O)N[C@H]2CC[C@@H](Nc3cc(N(C)C)c4ccccc4n3)CC2)c2cn(C)c3ccccc23)cc1 (relative stereo) [compound 722] | 3 (Class 3 The value of percent of control at 10^−7 M was more than 60% or the value of IC50 was more than 200 nM.)
10 | CCCN(CCC)C(=O)[C@H](CCC(=O)N[C@H]1CC[C@@H](Nc2cc(N(C)C)c3ccccc3n2)CC1)NC(=O)c1ccccc1 (relative stereo) [compound 730] | 3 (Class 3 The value of percent of control at 10^−7 M was more than 60% or the value of IC50 was more than 200 nM.)
11 | CN(C)c1cc(N[C@H]2CC[C@@H](NC(=O)C(CC(=O)c3ccc(Cl)cc3)SCc3ccc(Cl)cc3)CC2)nc2ccccc12 (relative stereo) [compound 741] | 3 (Class 3 The value of percent of control at 10^−7 M was more than 60% or the value of IC50 was more than 200 nM.)
12 | Cc1ccc(C(=O)CC(SCc2ccc(Cl)cc2)C(=O)N[C@H]2CC[C@@H](Nc3cc(N(C)C)c4ccccc4n3)CC2)cc1 (relative stereo) [compound 742] | 3 (Class 3 The value of percent of control at 10^−7 M was more than 60% or the value of IC50 was more than 200 nM.)
13 | CC1=C(CC(=O)N[C@H]2CC[C@@H](Nc3cc(N(C)C)c4ccccc4n3)CC2)c2cc(F)ccc2/C1=C/c1ccc([S+](C)[O-])cc1 (relative stereo) [compound 743] | 3 (Class 3 The value of percent of control at 10^−7 M was more than 60% or the value of IC50 was more than 200 nM.)
14 | CC(C(=O)N[C@H]1CC[C@@H](Nc2cc(N(C)C)c3ccccc3n2)CC1)c1ccc(C(=O)c2cccs2)cc1 (relative stereo) [compound 744] | 3 (Class 3 The value of percent of control at 10^−7 M was more than 60% or the value of IC50 was more than 200 nM.)
15 | COC(C(=O)N[C@H]1CC[C@@H](Nc2cc(N(C)C)c3ccccc3n2)CC1)c1ccccc1 (relative stereo) [compound 777] | 3 (Class 3 The value of percent of control at 10^−7 M was more than 60% or the value of IC50 was more than 200 nM.)
16 | CN(C)c1cc(N[C@H]2CC[C@@H](NC(=O)C3CCc4ccccc4C3)CC2)nc2ccccc12 (relative stereo) [compound 778] | 3 (Class 3 The value of percent of control at 10^−7 M was more than 60% or the value of IC50 was more than 200 nM.)
17 | CN(C)c1cc(N[C@H]2CC[C@@H](CNC(=O)C(Cc3ccccc3)c3ccccc3)CC2)nc2ccccc12 (relative stereo) [compound 793] | 3 (Class 3 The value of percent of control at 10^−7 M was more than 60% or the value of IC50 was more than 200 nM.)

Row | Compound | class
18 | CN(C)c1cc(N[C@H]2CC[C@@H](CNC(=O)C3CC(=O)c4ccccc43)CC2)nc2ccccc12 (relative stereo) [compound 798] | 3 (Class 3 The value of percent of control at 10^−7 M was more than 60% or the value of IC50 was more than 200 nM.)
19 | CCOc1ccc(C(=O)CC(C(=O)NC[C@H]2CC[C@@H](Nc3cc(N(C)C)c4ccccc4n3)CC2)C2C(=O)N(c3ccccc3)N=C2C)cc1 (relative stereo) [compound 807] | 3 (Class 3 The value of percent of control at 10^−7 M was more than 60% or the value of IC50 was more than 200 nM.)
20 | CN(C)c1ccnc(N[C@H]2CC[C@@H](NC(=O)C(Cc3ccccc3)c3ccccc3)CC2)n1 (relative stereo) [compound 817] | 3 (Class 3 The value of percent of control at 10^−7 M was more than 60% or the value of IC50 was more than 200 nM.)
21 | CN(C)c1ccnc(N[C@H]2CC[C@@H](NC(=O)C3CC(=O)c4ccccc43)CC2)n1 (relative stereo) [compound 823] | 3 (Class 3 The value of percent of control at 10^−7 M was more than 60% or the value of IC50 was more than 200 nM.)
22 | CN(C)c1ccnc(N[C@H]2CC[C@@H](NC(=O)[C@H](CCCCNC(=O)c3ccccc3)NC(=O)c3ccccc3)CC2)n1 (relative stereo) [compound 843] | 2 (Class 2: The value of percent of control at 10^−7 M was from 40% to 60% or the value of IC′50 was from 50 nM to 200 nM.)
23 | CC(C(=O)N[C@H]1CC[C@@H](Nc2nccc(N(C)C)n2)CC1)c1ccc(-c2ccccc2)c(F)c1 (relative stereo) [compound 847] | 3 (Class 3 The value of percent of control at 10^−7 M was more than 60% or the value of IC50 was more than 200 nM.)
24 | CC(C(=O)N[C@H]1CC[C@@H](Nc2nccc(N(C)C)n2)CC1)c1ccc(N2Cc3ccccc3C2=O)cc1 (relative stereo) [compound 849] | 3 (Class 3 The value of percent of control at 10^−7 M was more than 60% or the value of IC50 was more than 200 nM.)
25 | COc1ccc2c(c1)C(CC(=O)N[C@H]1CC[C@@H](Nc3nccc(N(C)C)n3)CC1)CC2=O (relative stereo) [compound 852] | 3 (Class 3 The value of percent of control at 10^−7 M was more than 60% or the value of IC50 was more than 200 nM.)
26 | CN(C)c1ccnc(N[C@H]2CC[C@@H](NC(=O)C(CC(=O)c3ccccc3)c3c[nH]c4ccccc34)CC2)n1 (relative stereo) [compound 855, N-(cis-4-{[4-(dimethylamino)pyrimidin-2-yl]amino}cyclohexyl)-2-(1H-indol-3-yl)-4-oxo-4-phenylbutanamide] | 1 (Class 1: The value of percent of control at 10^−7 M was less than 40% or the value of IC50 was less than 50 nM.)
27 | CN(C)c1ccnc(N[C@H]2CC[C@@H](NC(=O)C(CC(=O)c3ccc(Br)cc3)c3c[nH]c4ccccc34)CC2)n1 (relative stereo) [compound 856] | 2 (Class 2: The value of percent of control at 10^−7 M was from 40% to 60% or the value of IC′50 was from 50 nM to 200 nM.)
28 | CCc1cccc2c(C(CC(=O)c3ccc(C(C)(C)C)cc3)C(=O)N[C@H]3CC[C@@H](Nc4nccc(N(C)C)n4)CC3)c[nH]c12 (relative stereo) [compound 860] | 3 (Class 3 The value of percent of control at 10^−7 M was more than 60% or the value of IC50 was more than 200 nM.)
29 | CN(C)c1ccnc(N[C@H]2CC[C@@H](NC(=O)C(CC(=O)c3ccc(C(C)(C)C)cc3)c3cn(C)c4ccccc34)CC2)n1 (relative stereo) [compound 861] | 3 (Class 3 The value of percent of control at 10^−7 M was more than 60% or the value of IC50 was more than 200 nM.)
30 | Cc1ccc(C(=O)CC(C(=O)N[C@H]2CC[C@@H](Nc3nccc(N(C)C)n3)CC2)c2cn(C)c3ccccc23)cc1 (relative stereo) [compound 862, N-(cis-4-{[4-(dimethylamino)pyrimidin-2-yl]amino}cyclohexyl)-2-(1-methyl-1H-indol-3-yl)-4-(4-methylphenyl)-4-oxobutanamide] | 1 (Class 1: The value of percent of control at 10^−7 M was less than 40% or the value of IC50 was less than 50 nM.)
31 | CCCN(CCC)C(=O)[C@H](CCC(=O)N[C@H]1CC[C@@H](Nc2nccc(N(C)C)n2)CC1)NC(=O)c1ccccc1 (relative stereo) [compound 870] | 2 (Class 2: The value of percent of control at 10^−7 M was from 40% to 60% or the value of IC′50 was from 50 nM to 200 nM.)
32 | CN(C)c1ccnc(N[C@H]2CC[C@@H](NC(=O)C(CC(=O)c3ccc(Cl)cc3)SCc3ccc(Cl)cc3)CC2)n1 (relative stereo) [compound 881] | 3 (Class 3 The value of percent of control at 10^−7 M was more than 60% or the value of IC50 was more than 200 nM.)
33 | Cc1ccc(C(=O)CC(SCc2ccc(Cl)cc2)C(=O)N[C@H]2CC[C@@H](Nc3nccc(N(C)C)n3)CC2)cc1 (relative stereo) [compound 882] | 3 (Class 3 The value of percent of control at 10^−7 M was more than 60% or the value of IC50 was more than 200 nM.)
